For one data set, the target named is T1, EGFR (L858R) mutant (Homo sapiens, UniProt P00533, L858R).
T1 construct: purchased DiscoverX (Eurofins)
As to the kind of experiment: ScanEDGE competition binding, EGFR (L858R). On the set-up: dose or concentration left out as unconfirmed. The text has this:
(§1) The ScanEDGE assay, completed by DiscoverX (Eurofins) is a proprietary active site-directed competition binding assay. Compounds that bind the kinase active site prevent kinase binding to the immobilized ligand, reducing the amount of kinase captured on the solid support. Hits are identified by measuring the amount of kinase captured in experimental vs, control samples by a qPCR method that detects an associated DNA label. According to data provided by Eurofins, a typical hit at 5-10% of control signal in a 1 μM assay as shown above is generally associated with a KD in the range of 100-1,000 nM. Readings with greater than 35% of control signal correspond to exceeding large dissociation constants.

For another data set, the target named is T2, FLT3 (Homo sapiens, UniProt P36888).
T2 construct: purchased DiscoverX (Eurofins)
T2 sequence (P36888 27-993): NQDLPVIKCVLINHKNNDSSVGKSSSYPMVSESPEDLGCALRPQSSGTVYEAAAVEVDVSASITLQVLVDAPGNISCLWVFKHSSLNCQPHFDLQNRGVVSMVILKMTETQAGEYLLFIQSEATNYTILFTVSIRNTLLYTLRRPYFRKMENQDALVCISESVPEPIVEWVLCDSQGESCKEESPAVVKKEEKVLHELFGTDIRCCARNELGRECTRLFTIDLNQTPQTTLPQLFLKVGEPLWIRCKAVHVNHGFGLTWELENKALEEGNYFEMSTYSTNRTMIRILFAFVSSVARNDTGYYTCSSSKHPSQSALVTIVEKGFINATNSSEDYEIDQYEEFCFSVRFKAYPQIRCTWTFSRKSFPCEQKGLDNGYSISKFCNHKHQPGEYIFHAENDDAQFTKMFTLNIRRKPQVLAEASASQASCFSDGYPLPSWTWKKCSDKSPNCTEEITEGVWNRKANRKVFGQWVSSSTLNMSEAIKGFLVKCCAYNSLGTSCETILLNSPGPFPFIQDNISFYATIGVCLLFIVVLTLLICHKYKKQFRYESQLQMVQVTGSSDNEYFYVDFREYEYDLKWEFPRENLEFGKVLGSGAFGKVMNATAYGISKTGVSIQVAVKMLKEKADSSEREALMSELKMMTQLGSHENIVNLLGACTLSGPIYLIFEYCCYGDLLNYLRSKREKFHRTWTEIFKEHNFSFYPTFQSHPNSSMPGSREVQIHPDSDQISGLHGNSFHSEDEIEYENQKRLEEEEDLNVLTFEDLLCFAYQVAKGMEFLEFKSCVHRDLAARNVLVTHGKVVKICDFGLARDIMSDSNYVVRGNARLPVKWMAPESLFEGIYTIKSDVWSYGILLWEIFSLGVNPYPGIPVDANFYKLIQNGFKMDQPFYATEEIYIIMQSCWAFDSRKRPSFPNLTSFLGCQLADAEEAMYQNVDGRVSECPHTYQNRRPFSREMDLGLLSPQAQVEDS
Briefly: ScanEDGE competition binding, FLT3. To be noted: ScanEDGE screen.
From the text: as §1

Another data set relates to Jurkat and KOPTK1. As to the kind of experiment: Washout cytotoxicity experiment. Type of data set: cell-based. The settings on record: 18 hours with compound, washed, 30 hours. The protocol: T-cell cell lines Jurkat and KOPTK1 were plated in triplicates (20×10^4 cells per 96-well plate) and cultured with different concentrations of DK-2403 compound for 18 hours. Cells were washed twice to remove DK-2403 and incubated for 30 hours. Cell viability was measured (48 hours) using CellTiter-Glo luminescent cell viability assay.

SMILES strings stand for the structures.

T1 sequence (P00533 25-1210 L858R): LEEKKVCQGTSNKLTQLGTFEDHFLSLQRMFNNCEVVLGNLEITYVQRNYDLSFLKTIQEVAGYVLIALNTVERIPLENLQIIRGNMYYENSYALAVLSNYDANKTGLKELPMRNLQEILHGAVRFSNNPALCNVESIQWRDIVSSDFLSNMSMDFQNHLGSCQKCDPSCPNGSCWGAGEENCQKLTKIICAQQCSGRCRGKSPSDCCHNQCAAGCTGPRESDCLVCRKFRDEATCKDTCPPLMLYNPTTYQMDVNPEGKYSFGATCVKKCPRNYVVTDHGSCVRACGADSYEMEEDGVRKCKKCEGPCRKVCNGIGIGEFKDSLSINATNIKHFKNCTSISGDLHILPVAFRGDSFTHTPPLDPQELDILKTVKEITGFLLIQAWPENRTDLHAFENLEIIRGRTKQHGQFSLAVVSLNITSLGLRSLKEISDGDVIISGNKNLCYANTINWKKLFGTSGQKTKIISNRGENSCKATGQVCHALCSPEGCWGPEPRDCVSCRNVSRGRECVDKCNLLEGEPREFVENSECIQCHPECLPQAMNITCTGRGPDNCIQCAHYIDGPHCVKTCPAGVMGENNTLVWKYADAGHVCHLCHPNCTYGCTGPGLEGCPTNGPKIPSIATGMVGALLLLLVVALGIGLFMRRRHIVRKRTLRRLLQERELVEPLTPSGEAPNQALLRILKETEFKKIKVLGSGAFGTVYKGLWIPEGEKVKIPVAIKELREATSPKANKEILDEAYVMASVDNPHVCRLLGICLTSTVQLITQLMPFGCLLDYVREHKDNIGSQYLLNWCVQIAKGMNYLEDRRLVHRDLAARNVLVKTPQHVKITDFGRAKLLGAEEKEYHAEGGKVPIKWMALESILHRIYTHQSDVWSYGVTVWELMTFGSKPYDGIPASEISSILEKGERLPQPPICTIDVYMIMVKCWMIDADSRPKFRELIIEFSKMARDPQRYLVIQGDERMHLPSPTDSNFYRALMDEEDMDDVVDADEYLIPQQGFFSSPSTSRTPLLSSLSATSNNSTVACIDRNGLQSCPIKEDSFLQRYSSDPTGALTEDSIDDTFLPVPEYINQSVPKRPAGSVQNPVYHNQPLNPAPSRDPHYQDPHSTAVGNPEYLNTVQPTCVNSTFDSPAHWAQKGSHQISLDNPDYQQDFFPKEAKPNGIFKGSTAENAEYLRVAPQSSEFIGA

For the molecule `O=C(CCl)Nc1cccc(Oc2cc(NCc3ccccc3)ncn2)c1` [Compound 25, N-(3-((6-(benzylamino)pyrimidin-4-yl)oxy)phenyl)-2-chloroacetamide], on EGFR (L858R) mutant, the “binding to EGFR (L858R) mutant” value is recorded as “interacted significantly”. The “engagement of FLT3” value on FLT3 was “does not engage”. In addition, in the data set on Jurkat and KOPTK1, the cytotoxicity after washout result is reported as “resistant to washout”.

Source of the values: patent publication US20250049791A1, “Synthesis of MEK7 Inhibitors and methods of Use Thereof” (Northwestern University, priority 2023, published 2025).
